Laboratory results taken from patent publication US20100261719A1, “CHEMICAL COMPOUNDS” (priority 2007, published 2010).
≈ marks a conversion by molar mass, not a printed value.

Assays:
Sau517 = assay: Bacterial susceptibility testing (MIC), Sau517; format: cell-based; conditions: Staphylococcus aureus, liquid media, 37° C., 24 hours, lowest concentration reducing growth by 80% or more
Excerpt: (§1) Compounds may be tested for antimicrobial activity by susceptibility testing in liquid media in a 96 well format. Compounds may be dissolved in dimethylsulfoxide and tested in 10 doubling dilutions in the susceptibility assays. The organisms used in the assay may be grown overnight on suitable agar media and then suspended in a liquid medium appropriate for the growth of the organism. The suspension may be a 0.5 McFarland and a further 1 in 10 dilution may be advantageously made into the same liquid medium to prepare the final organism suspension in 100 μL. Plates may be incubated under appropriate conditions at 37° C. for 24 hours prior to reading. The Minimum Inhibitory Concentration (MIC) is intended to refer to the lowest drug concentration able to reduce growth by 80% or more.
(§2) Compounds may be evaluated against organisms such as Gram-positive species, including Staphylococcus aureus, Streptococcus pneumoniae, and Streptococcus pyogenes; and Gram-negative species including Haemophilus influenzae, and Moraxella catarrhalis.

Hin158 = assay: Bacterial susceptibility testing (MIC), Hin158; format: cell-based; conditions: Haemophilus influenzae, liquid media, 37° C., 24 hours, lowest concentration reducing growth by 80% or more
Excerpt: as §1, §2

Spn548 = assay: Bacterial susceptibility testing (MIC), Spn548; format: cell-based; conditions: Streptococcus pneumoniae, liquid media, 37° C., 24 hours, lowest concentration reducing growth by 80% or more
Excerpt: as §1, §2

Mca445 = assay: Bacterial susceptibility testing (MIC), Mca445; format: cell-based; conditions: Moraxella catarrhalis, liquid media, 37° C., 24 hours, lowest concentration reducing growth by 80% or more
Excerpt: as §1, §2

Sau516 = assay: Bacterial susceptibility testing (MIC), Sau516; format: cell-based; conditions: Staphylococcus aureus, liquid media, 37° C., 24 hours, lowest concentration reducing growth by 80% or more
Excerpt: as §1, §2

Spy838 = assay: Bacterial susceptibility testing (MIC), Spy838; format: cell-based; conditions: Streptococcus pyogenes, liquid media, 37° C., 24 hours, lowest concentration reducing growth by 80% or more
Excerpt: as §1, §2

Hin737 = assay: Bacterial susceptibility testing (MIC), Hin737; format: cell-based; conditions: Haemophilus influenzae, liquid media, 37° C., 24 hours, lowest concentration reducing growth by 80% or more
Excerpt: as §1, §2

[1] = biological target: Escherichia coli DNA gyrase A/B tetramer (Escherichia coli, UniProt P0AES4+P0AES6); assay: DNA gyrase supercoiling activity fluorescence polarisation assay; format: biochemical
In short: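 5 nM gyrase supercoils 130 μg/ml relaxed triplex-sequence plasmid with 0.3 mM ATP in Tris pH 7.5/KCl/MgCl2/spermidine buffer, 0.8% DMSO, ~30 min at ambient temperature, 5-10 compound concentrations. Quenched with 40 nM BODIPY-FL triplex probe at pH 3.5; anisotropy read after 60 min (485/535 nm). IC50 by nonlinear regression against no-compound and 5 uM ciprofloxacin controls.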

Hin446 = assay: Bacterial susceptibility testing (MIC), Hin446; format: cell-based; conditions: Haemophilus influenzae, liquid media, 37° C., 24 hours, lowest concentration reducing growth by 80% or more
Excerpt: as §1, §2

Spn538 = assay: Bacterial susceptibility testing (MIC), Spn538; format: cell-based; conditions: Streptococcus pneumoniae, liquid media, 37° C., 24 hours, lowest concentration reducing growth by 80% or more
Excerpt: as §1, §2

Sequence of Escherichia coli DNA gyrase A/B tetramer (P0AES4 whole entry, one chain of several): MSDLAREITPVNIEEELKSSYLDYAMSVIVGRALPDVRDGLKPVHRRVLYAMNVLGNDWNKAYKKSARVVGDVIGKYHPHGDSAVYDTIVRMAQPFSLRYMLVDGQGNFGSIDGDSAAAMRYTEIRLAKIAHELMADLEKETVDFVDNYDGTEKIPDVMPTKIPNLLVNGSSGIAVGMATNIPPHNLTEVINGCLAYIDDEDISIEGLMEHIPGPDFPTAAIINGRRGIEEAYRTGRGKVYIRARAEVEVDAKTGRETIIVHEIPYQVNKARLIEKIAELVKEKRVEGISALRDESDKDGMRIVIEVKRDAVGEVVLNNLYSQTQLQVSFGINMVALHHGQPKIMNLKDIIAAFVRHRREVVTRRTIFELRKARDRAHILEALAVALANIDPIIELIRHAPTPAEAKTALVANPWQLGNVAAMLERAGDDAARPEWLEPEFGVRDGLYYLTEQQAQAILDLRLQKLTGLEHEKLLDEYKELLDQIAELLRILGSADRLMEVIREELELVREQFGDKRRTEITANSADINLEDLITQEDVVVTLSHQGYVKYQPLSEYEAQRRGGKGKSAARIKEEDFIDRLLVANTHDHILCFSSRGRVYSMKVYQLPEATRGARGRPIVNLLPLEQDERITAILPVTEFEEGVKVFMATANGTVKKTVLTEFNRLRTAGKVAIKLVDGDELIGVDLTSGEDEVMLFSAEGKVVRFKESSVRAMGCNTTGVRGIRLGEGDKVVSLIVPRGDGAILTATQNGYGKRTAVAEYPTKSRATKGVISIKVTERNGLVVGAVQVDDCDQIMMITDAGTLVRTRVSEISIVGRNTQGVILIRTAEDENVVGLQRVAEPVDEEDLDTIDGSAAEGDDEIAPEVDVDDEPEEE

`C[C@@H]1CN2c3ccc(C#C[Si](C)(C)C)cc3CC3(C(=O)NC(=O)NC3=O)[C@H]2[C@H](C)O1` (racemic) [Example 1, (2R,4S,4aS)-rel-2,4-Dimethyl-8-((trimethylsilypethynyl)-2,4,4a,6-tetrahydro-1H,1′H-spiro[[1,4]oxazino[4,3-a]quinoline-5,5′-pyrimidine]-2′,4′,6′(3′H)-trion] was tested, and the MIC (Sau517) was 8 µg/mL (≈ 18.8 µM), the MIC (Hin158) was 0.13 µg/mL (≈ 0.305 µM) and the MIC (Spn548) was 16 µg/mL (≈ 37.6 µM). For the same compound, the MIC (Mca445) was 2 µg/mL (≈ 4.7 µM), the MIC (Sau516) was 8 µg/mL (≈ 18.8 µM) and the MIC (Spy838) was 16 µg/mL (≈ 37.6 µM). It also gave an MIC (Hin737) of 16 µg/mL (≈ 37.6 µM), an IC50 [1] of 7.57 µM and an MIC (Hin446) of 4 µg/mL (≈ 9.4 µM). The MIC (Spn538) was 32 µg/mL (≈ 75.2 µM).
